Key:
Assay in all cases: Post-emergence efficacy (B1), compounds of Formula (I) alone, evaluated after 13 days
Assay type in all cases: in vivo
[1] = tested on: Amaranthus palmeri (AMAPA); conditions: 500 g/Ha, post-emergence spray
Description: (§1) Seeds of a variety of test species were sown in standard laom-based soil in pots: Ipomoea hederacea (IPOHE), Euphorbia heterophylla (EPHHL), Chenopodium album (CHEAL), Amaranthus palmeri (AMAPA), Lolium perenne (LOLPE), Digitaria sanguinalis (DIGSA), Eleusine indica (ELEIN), Echinochloa crus-galli (ECHCG), Setaria faberi (SETFA). After cultivation for 14 days (post-emergence) under controlled conditions in a glasshouse (at 24/16° C., day/night; 14 hours light; 65% humidity), the plants were sprayed with an aqueous spray solution derived from the dissolution of the technical active ingredient Formula (I) in a small amount of acetone and a special solvent and emulsifier mixture referred to as IF50 (11.12% Emulsogen EL360 TM+44.44% N-methylpyrrolidone+44.44% Dowanol DPM glycol ether), to create a 50 g/I solution which was then diluted to required concentration using 0.25% or 1% Empicol ESC70 (Sodium lauryl ether sulphate)+1% ammonium sulphate as diluent. The delivery of the aqueous spray solution was via a laboratory track sprayer which delivered the aqueous spray composition at a rate of 200 litres per hectare, using a flat fan nozzle (Teejet 11002VS) and an application volume of 200 litre/ha (at 2 bar).
(§2) The test plants were then grown in a glasshouse under controlled conditions (at 24/16° C., day/night; 14 hours light; 65% humidity) and watered twice daily. After 13 days the test was evaluated (100=total damage to plant; 0=no damage to plant).

[2] = tested on: Chenopodium album (CHEAL); conditions: 500 g/Ha, post-emergence spray
Description: as §1, §2

[3] = tested on: Ipomoea hederacea (IPOHE); conditions: 312 h, post-emergence spray, read-out: Control of weed species after post-emergence application: IPOHE (100=total damage to plant; 0=no damage to plant)
Description: as §1, §2

Setaria faberi (SETFA) = conditions: 312 h, post-emergence spray, read-out: Control of weed species after post-emergence application: SETFA (100=total damage to plant; 0=no damage to plant)
Description: as §1, §2

[4] = tested on: Digitaria sanguinalis (DIGSA); conditions: 312 h, post-emergence spray, read-out: Control of weed species after post-emergence application: DIGSA (100=total damage to plant; 0=no damage to plant)
Description: as §1, §2

Lolium perenne (LOLPE) = conditions: 312 h, post-emergence spray, read-out: Control of weed species after post-emergence application: LOLPE (100=total damage to plant; 0=no damage to plant)
Description: as §1, §2

[5] = tested on: Euphorbia heterophylla (EPHHL); conditions: 500 g/Ha, post-emergence spray
Description: as §1, §2

[6] = tested on: Echinochloa crus-galli (ECHCG); conditions: 312 h, post-emergence spray, read-out: Control of weed species after post-emergence application: ECHCG (100=total damage to plant; 0=no damage to plant)
Description: as §1, §2

Eleusine indica (ELEIN) = conditions: 500 g/Ha, post-emergence spray
Description: as §1, §2

Structure (SMILES) | Control of weed species after post-emergence application: AMAPA (100=total damage to plant; 0=no damage to plant) [1] | Control of weed species after post-emergence application: CHEAL (100=total damage to plant; 0=no damage to plant) [2] | pest or weed control at 500 g/ha [3] [%] | pest or weed control at 500 g/ha (Setaria faberi (SETFA)) [%] | pest or weed control at 500 g/ha [4] [%] | pest or weed control at 500 g/ha (Lolium perenne (LOLPE)) [%] | Control of weed species after post-emergence application: EPHHL (100=total damage to plant; 0=no damage to plant) [5] | pest or weed control at 500 g/ha [6] [%] | Control of weed species after post-emergence application: ELEIN (100=total damage to plant; 0=no damage to plant) (Eleusine indica (ELEIN))
N[C@@H](CC[n+]1ccc(-c2ncccn2)cn1)C(=O)O.O=C(O)C(F)(F)F.O=C([O-])C(F)(F)F [Compound 1.035, [(1S)-1-carboxy-3-(4-pyrimidin-2-ylpyridazin-1-ium-1-yl)propyl]-ammonium 2,2,2-trifluoroacetate] | 100 | 100 | 90 | 100 | 90 | 20 | 90 | 60 | 100
N[C@H](CC[n+]1ccc(-c2ncccn2)cn1)C(=O)O.O=C(O)C(F)(F)F.O=C([O-])C(F)(F)F [Compound 1.029, [(1R)-1-carboxy-3-(4-pyrimidin-2-ylpyridazin-1-ium-1-yl)propyl]-ammonium 2,2,2-trifluoroacetate] | 100 | 100 |  |  |  |  | 90 |  | 100

— US20220192195A1, “HERBICIDAL COMPOSITIONS” (SYNGENTA CROP PROTECTION AG, priority 2019, published 2022)
